Reference: patent publication US20040191289A1, “Compositions for controlling plant pathogenic bacterium and method of controlling plant pathogenic bacterium” (priority 2001, published 2004)

How the values were obtained:
[1] = test system: Pythium aphanidermatum; assay: Antimicrobial test, mycelial growth on PSA medium (Test Example 1); format: cell-based; details: 20° C., 2 day incubation
Protocol: (§1) Each sample fungal flora pre-cultured in PSA medium was cut from the medium plate with a cork borer, and placed on a center of PSA medium containing each test compound at a predetermined concentration, dispensed in a Petri dish with an inner diameter of 8 cm. Immediately thereafter, the dish was allowed to stand in a thermostatic room set at 20° C. The diameters of the flora zones were measured after 2 day incubation. A mycelial growth rate is calculated according to the following equation. […] A theoretically expected value can be calculated according to the following formula derived from the so-called Colby's formula. In cases where an observed value is lower than the theoretically expected one obtained from the formula derived from the Colby's formula, the phytopathogenic microorganism-disinfecting composition of the present invention is synergistically effective in combating and/or eliminating phytopathogenic microorganisms.

[2] = test system: Pythium spinosum; assay: as above; format: cell-based; details: 20° C., 2 day incubation
Protocol: as §1

[3] = test system: Pythium Damping-off Disease of Rice Seedlings; assay: Test for prophylactic efficacy against Pythium damping-off disease of rice seedlings (1) (Test Example 2); format: in vivo; details: soil irrigation, 29 days after sowing
Protocol: (§2) Polyvinyl chloride cups (each 10 cm square) were filled with pathogen-inoculated soil as bed soil, and seeded with rice seeds. Next, the polyvinyl chloride cup was irrigated using a pipette with a test solution (27.8 ml) prepared by adjusting each active ingredient compound to a predetermined concentration, and then covered with soil. After kept for 3 days in a thermostatic room set at 32° C., the plants were grown in a greenhouse. Ten days after sowing, the plants were exposed to a cold temperature during night. Twenty nine days after sowing, the disease incidence area was examined. In these cases, each theoretically expected value obtained from the aforementioned formula derived from the Colby's formula is shown in parentheses in Table 3.

[4] = test system: Pythium Damping-off Disease of Rice Seedlings; assay: Test for prophylactic efficacy against Pythium damping-off disease of rice seedlings (2) (Test Example 3); format: in vivo; details: soil irrigation, 35 days after sowing
Protocol: as §2, with “AS resin cases” for “Polyvinyl chloride cups”, “15×11 cm)” for “10 cm square)”, “AS resin case” for “polyvinyl chloride cup”, “(50” for “(27.8”, “night for 3 days. Thirty five” for “night. Twenty nine”, “4.” for “3.”

[5] = test system: Aphanomyces cochlioides (MAFF No. 305548); assay: Antimicrobial test, mycelial growth on PSA medium (Test Example 4); format: cell-based; details: 20° C., 3 day incubation
Protocol: (§3) Each sample fungal flora pre-cultured in PSA medium was cut from the medium plate with a cork borer, and placed on a center of PSA medium containing each test compound at a predetermined concentration, dispensed in a Petri dish with an inner diameter of 8 cm. Immediately thereafter, the dish was allowed to stand in a thermostatic room set at 20° C. […] In cases where an observed value is lower than the theoretically expected one derived from the Colby's formula, the phytopathogenic microorganism-disinfecting composition of the present invention is synergistically effective in combating and/or eliminating phytopathogenic microorganisms.

[6] = test system: Pythium debaryanum (MAFF No. 305462); assay: as above; format: cell-based; details: 20° C., 1 day incubation
Protocol: as §3

Cc1ccc(-c2c(Cl)nc(C#N)n2S(=O)(=O)N(C)C)cc1 [Compound No. 1, 4-chloro-2-cyano-1-dimethylsulfamoyl-5-(4-methyl-phenyl)imidazole]
Mycelial Growth Rate (%) ([1]; Compound No. 1 25 ppm alone): 21.1% | Mycelial Growth Rate (%) ([1]; Compound No. 1 50 ppm alone): 6.3% | Mycelial Growth Rate (%) ([1]; Compound No. 1 100 ppm alone): 9.4% | Mycelial Growth Rate (%) ([2]; Compound No. 1 25 ppm alone): 14.4% | Mycelial Growth Rate (%) ([2]; Compound No. 1 50 ppm alone): 9.3% | Mycelial Growth Rate (%) ([2]; Compound No. 1 100 ppm alone): 2.1% | Damping-off Incidence Area Rate (%) ([3]; Compound No. 1 278 g/ha alone): 67% | Damping-off Incidence Area Rate (%) ([4]; Compound No. 1 139 g/ha alone): 50% | Mycelial Growth Rate (%) ([5]; Compound No. 1 25 ppm alone): 52% | Mycelial Growth Rate (%) ([5]; Compound No. 1 50 ppm alone): 29% | Mycelial Growth Rate (%) ([5]; Compound No. 1 100 ppm alone): 11% | Mycelial Growth Rate (%) ([6]; Compound No. 1 25 ppm alone): 59% | Mycelial Growth Rate (%) ([6]; Compound No. 1 50 ppm alone): 49% | Mycelial Growth Rate (%) ([6]; Compound No. 1 100 ppm alone): 44%

Cc1cc(O)no1 [Hymexazol, 5-methylisoxazol-3-ol]
Mycelial Growth Rate (%) ([1]; Hymexazol 25 ppm alone): 22.7% | Mycelial Growth Rate (%) ([1]; Hymexazol 50 ppm alone): 16.4% | Mycelial Growth Rate (%) ([1]; Hymexazol 100 ppm alone): 6.3% | Mycelial Growth Rate (%) ([2]; Hymexazol 25 ppm alone): 27.8% | Mycelial Growth Rate (%) ([2]; Hymexazol 50 ppm alone): 21.6% | Mycelial Growth Rate (%) ([2]; Hymexazol 100 ppm alone): 23.7% | Damping-off Incidence Area Rate (%) ([3]; Hymexazol 1,040 g/ha alone): 50% | Damping-off Incidence Area Rate (%) ([4]; Hymexazol 1,040 g/ha alone (Compound No. 1 0 ppm)): 90% | Mycelial Growth Rate (%) ([5]; Hymexazol 25 ppm alone): 53% | Mycelial Growth Rate (%) ([5]; Hymexazol 50 ppm alone): 43% | Mycelial Growth Rate (%) ([5]; Hymexazol 100 ppm alone): 43% | Mycelial Growth Rate (%) ([6]; Hymexazol 25 ppm alone): 89% | Mycelial Growth Rate (%) ([6]; Hymexazol 50 ppm alone): 84% | Mycelial Growth Rate (%) ([6]; Hymexazol 100 ppm alone): 67%
